Assays:
Format in all cases: binding, human
maternal autoantibodies = assay: validation peptide microarray incubated with maternal plasma samples (ASD vs TD mothers); conditions: for binding by autoantibodies, ASD samples compared with TD samples: in words; for Number (%) Positive In ASD / Number Positive In ASD (n = 46): plasma of mothers of children with ASD, n = 46; for Number Positive In ASD (n = 46): peptide called positive (reactive) per sample; for Number (%) Positive In TD / Number Positive In TD (n = 21): plasma of mothers of typically developing children, n = 21
[1] = test system: autoantibodies present in a maternal sample; assay: STIP1 peptide ELISA with maternal plasma samples; conditions: plasma 1:400; for Final (absorbance, average minus blank): 450 nm; for Average (absorbance): 450 nm with 490 nm reference, duplicate
Source text: The peptides of Table 2 were synthesized with a linker and biotinylated. In particular, each biotinylated peptide was biotin-SGSS-peptide-DKP with SGSS (SEQ ID NO: 121) as the spacer and a diketopiperazine (DKP) group at the C-terminus of the peptide. Pierce® NeutrAvidin® protein coated microwell plates (Thermo Scientific) were washed with PBST and excess buffer was removed from the wells. The biotinylated peptides were reconstituted in pure solvent (e.g., DMSO or DMF) or a solvent/water mixture. The reconstituted peptide was diluted […] in ultra pure water to a final concentration of 5 μg/ml. 100 μl of the diluted biotinylated peptide was dispensed into the wells and incubated for 1 hour at room temperature or overnight at 4° C. on a slow rocker. Reference wells were left uncoated but filled with buffer. Nonspecific binding sites were blocked by incubation with 200 μl of a 5% Pierce® Superblock™ PBS solution for 2 hours at room temperature. Subsequently, the plates were washed six times with PBST using an automated plate washer.
The following method adapted from Sanchez et al. (Cancer Chemother. Pharmacol., 66: 919-925 (2010)) was used to detect maternal antibodies against one or more of the peptides of the ELISA-based assay described above: Maternal plasma samples were obtained including samples predetermined to be reactive to the full-length antigens of the peptides in the assay. The test samples were diluted in sample diluent (e.g., 2.5% Pierce® Superblock™ in PBST) and 100 μl of each sample was added to the wells of the assay plate. All samples were analyzed in duplicate in both peptide-coated and uncoated wells. The diluted samples were incubated for 1 hour at room temperature. The plates were then washed six times with PBST. The labeled secondary antibody solution (e.g., horseradish peroxidase-conjugated goat anti-human IgG, Invitrogen) was added to the wells and incubated for 30 minutes at room temperature. The plates were again washed eight times with PBST. The plates were then washed with PBS without Tween twice. The BD Opt EIA™ substrate (BD Biosciences Pharmingen, San Diego, Calif.) was added to the wells and incubated at room temperature for 10 minutes. The STOP solution (2N H2SO4) was added and the plate was read at 450 nm using a reference filter at 490 nm.
In particular, four maternal plasma samples were tested for their reactivity to a STIP1 peptide having the amino acid sequence PPPPPPKKETKPEPM (SEQ ID NO:22) using the following peptide ELISA protocol: • 1. Bring all reagents to room temperature. • 2. Peptides were diluted in ultra pure water from peptide stock (1 mg/mL) to a final concentration of 5 μg/mL. • 3. Add 100 μl of each peptide to corresponding wells on 96-well NeutrAvidin coated plate. • 4. Incubate plate for 1 hour at room temperature. • 5. Wash plate six times with PBS with 0.05% Tween. • 6. Add 200 μl of 5% Superblock to each well and incubated for 2 hours at room temperature. • 7. Wash plate six times with PBS with 0.05% Tween. • 8. Dilute maternal plasma samples 1:400 in sample buffer (2.5% Superblock in PBS with 0.05% Tween). • 9. Add 100 μl of diluted plasma samples to wells and incubate for 1 hour at room temperature. • 10. Wash plate six times with PBS with 0.05% Tween. • 11. Dilute Goat Anti-Human antibody 1:2,500 in PBS with 0.05% Tween. • 12. Add 100 μl of diluted Goat Anti-Human antibody to wells and incubate for 30 minutes at room temperature. • 13. Wash plate eight times with PBS with 0.05% Tween and two times with PBS Neat. • 14. Add 100 μl of BD Opt EIA substrate to each well. • 15. Incubate plate in the dark for 10 minutes at room temperature. • 16. Add 50 μl of H2SO4 to each well to stop chemical reaction. • 17. Read plate on reduced setting on spectrophotometer at 450 nm with 490 nm reference.
The samples were run in duplicate and the absorbance values were averaged. […]

[2] = test system: autoantibodies present in a maternal sample; assay: ELISA with the full-length STIP1 polypeptide; conditions: Sample No. 1190
[3] = Sample No. 99 (Medium Reactivity)
[4] = Sample No. 1190 (Highly Reactive)
[5] = Sample No. 1887 (Low Reactivity)

Substance | binding by autoantibodies, ASD samples compared with TD samples (maternal autoantibodies) | Number (%) Positive In ASD (maternal autoantibodies) | Number Positive In ASD (n = 46) (maternal autoantibodies) | Number (%) Positive In TD (maternal autoantibodies) | Number Positive In TD (n = 21) (maternal autoantibodies) | other results
VVPEPGSSLLTSFEK [SEQ ID NO: 36] | only bound by autoantibodies when the microarrays were incubated with plasma samples obtained from mothers whose children had a diagnosis of ASD | 4% | 2 | 0% | 0 | –
VDLGSMDEEEEIATP [SEQ ID NO: 21] | – | 13% | 6 | 5% | 1 | –
VLLGVDLGSMDEEEE [SEQ ID NO: 20] | – | 30% | 14 | 19% | 4 | –
PPPPPPKKETKPEPM [SEQ ID NO: 22] | – | – | – | – | – | Final (absorbance, average minus blank) [1, 3]: 0.483; Average (absorbance) [1, 3]: 1.482; Final (absorbance, average minus blank) ([1]; Sample No. 142 (Negative)): 0.093; Average (absorbance) ([1]; Sample No. 142 (Negative)): 1.295; Final (absorbance, average minus blank) [1, 4]: 2.045; Average (absorbance) [1, 4]: 2.442; Final (absorbance, average minus blank) [1, 5]: 0.129; Average (absorbance) [1, 5]: 2.101
VDITSWYDGVREELE [SEQ ID NO: 38] | – | 26% | 12 | 14% | 3 | –
PVAEEEATVPNNKIT [SEQ ID NO: 9] | only bound by autoantibodies when the microarrays were incubated with plasma samples obtained from mothers whose children had a diagnosis of ASD | 7% | 3 | 0% | 0 | –
PAAPPAAPALSAADT [SEQ ID NO: 28] | – | 41% | 19 | 29% | 6 | –
VPRGLYDGPVCEVSV [SEQ ID NO: 60] | – | 17% | 8 | 5% | 1 | –
ETVEFDVVEGEKGAE [SEQ ID NO: 32] | – | 11% | 5 | 5% | 1 | –
TPKIVADKDYSVTAN [SEQ ID NO: 11] | only bound by autoantibodies when the microarrays were incubated with plasma samples obtained from mothers whose children had a diagnosis of ASD | 2% | 1 | 0% | 0 | –
IAPVAEEEATVPNNKIT [SEQ ID NO: 66] | only bound by autoantibodies when the microarrays were incubated with plasma samples obtained from mothers whose children had a diagnosis of ASD | 4% | 2 | 0% | 0 | –
MAERKQSGKAAEDEE [SEQ ID NO: 45] | – | 22% | 10 | 5% | 1 | –
full-length STIP1 polypeptide: full-length stress-induced phosphoprotein 1 (STIP1) polypeptide used in a comparison ELISA | – | – | – | – | – | absorbance value [2]: ~1.0
VDVIEDKLKGEMMDL [SEQ ID NO: 3] | – | 15% | 7 | 10% | 2 | –
KTISAKTHNSSLEYN [SEQ ID NO: 54] | only bound by autoantibodies when the microarrays were incubated with plasma samples obtained from mothers whose children had a diagnosis of ASD | 2% | 1 | 0% | 0 | –
DCIIIVVSNPVDILT [SEQ ID NO: 12] | only bound by autoantibodies when the microarrays were incubated with plasma samples obtained from mothers whose children had a diagnosis of ASD | 11% | 5 | 0% | 0 | –
LQTPKIVADKDYSVTAN [SEQ ID NO: 71] | only bound by autoantibodies when the microarrays were incubated with plasma samples obtained from mothers whose children had a diagnosis of ASD | 2% | 1 | 0% | 0 | –
MDLNDTFPEYKETIE (MDLNDTFPEYKETTE) [SEQ ID NO: 27] | – | 17% | 8 | 5% | 1 | –
HNSSLEYNIFEGMEC [SEQ ID NO: 55] | – | 35% | 16 | 19% | 4 | –
